Data taken from patent publication US20260295053A1, “COMPOUNDS FOR DEGRADATION AND INHIBITION OF KRAS (G12D) PROTEIN” (Shenzhen Ionova Life Science Co., Ltd., priority 2023, published 2026).

Experiments:
KRAS (G12D) = target: T1, KRAS (G12D) (Homo sapiens, UniProt P01116, G12D); assay: KRAS (G12D) cellular degradation assay in AsPC-1 cells; type: cell-based; settings: 24 hours, antibody fluorescence (Odyssey CLX), DC50 half-maximal degradation concentration
T1 construct: in-cell western with KRAS G12D antibody after 24 h
T1 sequence (P01116 1-188 isoform P01116-2 G12D): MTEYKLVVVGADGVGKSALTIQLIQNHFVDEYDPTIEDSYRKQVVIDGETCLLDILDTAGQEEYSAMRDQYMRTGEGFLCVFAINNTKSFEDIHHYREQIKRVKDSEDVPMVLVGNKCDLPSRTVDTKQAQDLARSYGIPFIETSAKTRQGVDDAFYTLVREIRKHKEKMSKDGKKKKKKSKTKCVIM
Procedure, shortened: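 Half-maximal degradation (DC50) and inhibition (IC50) concentrations are fitted from dose-response curves spanning […] to 1.5 nM final. KRAS G12D loss is measured by fluorescent antibody staining with β-actin reference after 24 h; growth is measured by ATP luminescence after a 6-day exposure.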

AsPC-1 cells = assay: AsPC-1 cell proliferation assay (CellTiter Glo); type: cell-based; settings: 6 days
Experimental: ASPC-1 and PK-59 cellular assays ASPC-1 (ATCC cat. CRL-1682) and PK-59 (Nanjing Cobioer, Cat. No. CBP61184) were used in KRAS cellular degradation, pERK inhibition and proliferation assays. The two cell lines were maintained following vendor's instructions. For monitoring KRAS (G12D) cellular degradation and pERK biomarker inhibition, cells were seeded into a 96-well plate with 22,000 and 16,000 cells/well for assays in ASPC-1 and PK-59, respectively. Cells were incubated at 37° C. with 5% CO2 and cell density was monitored until ^~90% confluency was reached. Compounds were serially diluted at a 1:3 ratio and dispensed into each well at final concentrations ranging from […] to 1.5 nM. After incubation for 24 hours, the culture media were removed and the cells were subjected to fixation, permeabilization and blocking (Intercept blocking buffer, Li-cor). For KRAS (G12D) degradation, the cells were treated with primary antibody (KRAS G12D antibody, Cell Signaling Technologies, Cat. No. CST14429) and for β-actin (β-actin mAb, Beyotime, Cat. No. AF-5001), and followed by secondary antibodies, Anti-rabbit IgG (H+L) (DyLight™ 800 4×PEG Conjugate) or IRDye® 680RD Goat anti-Mouse IgG. For pERK inhibition assay, cells were treated with primary antibodies for pERK (Phospho-p44/42 MAPK (Erk1/2) (Thr202/Tyr204) (D13.14.4E) XP® Rabbit mAb, Cell Signaling Technologies, Cat. No. CST-4370) and β-actin (β-actin mAb, Beyotime, Cat. No. AF-5001), and followed by secondary antibodies, Anti-rabbit IgG (H+L) (DyLight™ 800 4×PEG Conjugate) or IRDye® 680RD Goat anti-Mouse IgG. Fluorescence signals were read on Odyssey CLX instrument. For cell proliferation assays, cells were seeded into a 96-well plate at 3,500 and 800 cells/well for assays in ASPC-1 and PK-59, respectively. Cells were incubated at 37° C. with 5% CO2 for overnight. Compounds were serially diluted at a 1:3 ratio and dispensed into each well at final concentrations ranging from […] to 1.5 nM. After incubation for 6 days, cell viability reagent (CellTiter Glo, Promega, Cat. No. G7573) was added to each well and luminescence was recorded on Molecular Devices Spectramax iD3 instrument. IC50, half-maximal inhibitory concentration for pERK inhibition or cell proliferation, and DC50, half-maximal degradation concentration in KRAS (G12D) cellular degradation were determined by fitting the corresponding dose response curves using GraphPad Prism software.
Wherein “A” means the value <10 nM, “B” means 10 nM<the value <100 nM, “C” means 100 nM<the value <1000 nM, and “D” means the value >1000 nM, in which, the value means the value of DC50 or IC50. NT means not tested.

DC50 (KRAS (G12D)) [nM] | IC50 (AsPC-1 cells; Homo sapiens, ASPC1, 144 h) [nM] | IC50 (AsPC-1 cells) [nM] | Structure (SMILES)
< 10 | < 10 | – | CO[C@@H](C)COc1nc(N2C[C@@H]3C[C@H]2CN3)c2cc(C3CC3)c(-c3c(C)c(F)cc4[nH]ncc34)c(OCc3ccc(-c4cn([C@H](C(=O)N5C[C@H](O)C[C@H]5C(=O)N[C@H](C#Cc5scnc5C)CO)C(C)C)nn4)cc3)c2n1 [Example 41, (2S,4R)-1-((2S)-2-(4-(4-(((4-((1S,4S)-2,5-diazabicyclo[2.2.1]heptan-2-yl)-6-cyclopropyl-7-(6-fluoro-5-methyl-1H-indazol-4-yl)-2-((S)-2-methoxypropoxy)quinazolin-8-yl)oxy)methyl)phenyl)-1H-1,2,3-triazol-1-yl)-3-methylbutanoyl)-4-hydroxy-N—((R)-1-hydroxy-4-(4-methylthiazol-5-yl)but-3-yn-2-yl)pyrrolidine-2-carboxamide]
< 10 | < 10 | – | CCn1nccc1-c1ccc([C@H](CO)NC(=O)[C@@H]2C[C@@H](O)CN2C(=O)[C@H](C(C)C)n2cc(-c3ccc(COc4c(-c5c(C)c(F)c(F)c6[nH]ncc56)c(C5CC5)cc5c(N6C[C@@H]7C[C@H]6CN7)nc(OC[C@H](C)OC)nc45)cc3)nn2)cc1 [Example 57, (2S,4R)-1-((2S)-2-(4-(4-(((4-((1S,4S)-2,5-diazabicyclo[2.2.1]heptan-2-yl)-6-cyclopropyl-7-(6,7-difluoro-5-methyl-1H-indazol-4-yl)-2-((S)-2-methoxypropoxy)quinazolin-8-yl)oxy)methyl)phenyl)-1H-1,2,3-triazol-1-yl)-3-methylbutanoyl)-N—((R)-1-(4-(1-ethyl-1H-pyrazol-5-yl)phenyl)-2-hydroxyethyl)-4-hydroxypyrrolidine-2-carboxamide]
10 to 100 | < 10 | – | CO[C@@H](C)COc1nc(N2C[C@@H]3C[C@H]2CN3)c2cc(C3CC3)c(-c3c(C)c(F)cc4[nH]ncc34)c(OCc3ccc(-c4cn([C@H](C(=O)N5C[C@H](O)C[C@H]5C(=O)N[C@H](C#Cc5ccc6ncsc6c5)CO)C(C)C)nn4)cc3)c2n1 [Example 54, (2S,4R)-1-((2S)-2-(4-(4-(((4-((1S,4S)-2,5-diazabicyclo[2.2.1]heptan-2-yl)-6-cyclopropyl-7-(6-fluoro-5-methyl-1H-indazol-4-yl)-2-((S)-2-methoxypropoxy)quinazolin-8-yl)oxy)methyl)phenyl)-1H-1,2,3-triazol-1-yl)-3-methylbutanoyl)-N—((R)-4-(benzo[d]thiazol-6-yl)-1-hydroxybut-3-yn-2-yl)-4-hydroxypyrrolidine-2-carboxamide]
< 10 | < 10 | – | CCn1nccc1-c1ccc([C@@H](NC(=O)[C@@H]2C[C@@H](O)CN2C(=O)[C@H](C(C)C)n2cc(-c3ccc(COc4c(-c5c(C)c(F)cc6[nH]ncc56)c(C5CC5)cc5c(N6C[C@@H]7C[C@H]6CN7)nc(OC6CCC(OC)CC6)nc45)cc3)nn2)[C@@H](C)O)cc1 (stereo partly drawn) [Example 127, (2S,4R)-1-((2S)-2-(4-(4-(((4-((1S,4S)-2,5-diazabicyclo[2.2.1]heptan-2-yl)-6-cyclopropyl-7-(6-fluoro-5-methyl-1H-indazol-4-yl)-2-((4-methoxycyclohexyl)oxy)quinazolin-8-yl)oxy)methyl)phenyl)-1H-1,2,3-triazol-1-yl)-3-methylbutanoyl)-N-((1R,2R)-1-(4-(1-ethyl-1H-pyrazol-5-yl)phenyl)-2-hydroxypropyl)-4-hydroxypyrrolidine-2-carboxamide]
< 10 | < 10 | – | CCn1nccc1-c1ccc([C@H](CO)NC(=O)[C@@H]2C[C@@H](O)CN2C(=O)[C@H](C(C)C)n2cc(-c3ccc(COc4c(-c5c(C)c(F)cc6[nH]ncc56)c(C5CC5)cc5c(N6C[C@@H]7C[C@H]6CN7)nc(OC6CC7(CCOCC7)C6)nc45)cc3)nn2)cc1 [Example 105, (2S,4R)-1-((2S)-2-(4-(4-(((2-((7-oxaspiro[3.5]nonan-2-yl)oxy)-4-((1S,4S)-2,5-diazabicyclo[2.2.1]heptan-2-yl)-6-cyclopropyl-7-(6-fluoro-5-methyl-1H-indazol-4-yl)quinazolin-8-yl)oxy)methyl)phenyl)-1H-1,2,3-triazol-1-yl)-3-methylbutanoyl)-N—((R)-1-(4-(1-ethyl-1H-pyrazol-5-yl)phenyl)-2-hydroxyethyl)-4-hydroxypyrrolidine-2-carboxamide]
10 to 100 | – | 10 to 100 | CCn1nccc1-c1ccc([C@H](CO)NC(=O)[C@@H]2C[C@@H](O)CN2C(=O)[C@H](C(C)C)n2cc(-c3ccc(COc4c(-c5c(C)c(F)cc6[nH]ncc56)c(C5CC5)cc5c(N6CC7CCC(C6)N7)nc(OC[C@H](C)OC)nc45)cc3)nn2)cc1 (single isomer, unassigned) [Example 8]
< 10 | < 10 | – | CCn1nccc1-c1ccc([C@H](CO)NC(=O)[C@@H]2C[C@@H](O)CN2C(=O)[C@H](C(C)C)n2cc(-c3ccc(COc4c(-c5c(C)c(F)cc6[nH]ncc56)c(C5CC5)cc5c(N6C[C@@H]7C[C@H]6CN7)nc(O[C@H]6CO[C@H]7OCC[C@H]76)nc45)cc3)nn2)cc1 [Example 56, (2S,4R)-1-((2S)-2-(4-(4-(((4-((1S,4S)-2,5-diazabicyclo[2.2.1]heptan-2-yl)-6-cyclopropyl-7-(6-fluoro-5-methyl-1H-indazol-4-yl)-2-(((3R,3aS,6aR)-hexahydrofuro[2,3-b]furan-3-yl)oxy)quinazolin-8-yl)oxy)methyl)phenyl)-1H-1,2,3-triazol-1-yl)-3-methylbutanoyl)-N—((R)-1-(4-(1-ethyl-1H-pyrazol-5-yl)phenyl)-2-hydroxyethyl)-4-hydroxypyrrolidine-2-carboxamide]
< 10 | – | – | CCn1nccc1-c1ccc([C@H](CO)NC(=O)[C@@H]2C[C@@H](O)CN2C(=O)[C@H](C(C)C)n2cc(-c3ccc(COc4c(-c5c(C)c(F)cc6[nH]ncc56)c(C5CC5)cc5c(N6CCC(N)CC6)nc(OC[C@H](C)OC)nc45)cc3)nn2)cc1 [Example 225, (2S,4R)-1-((2S)-2-(4-(4-(((4-(4-aminopiperidin-1-yl)-6-cyclopropyl-7-(6-fluoro-5-methyl-1H-indazol-4-yl)-2-((S)-2-methoxypropoxy)quinazolin-8-yl)oxy)methyl)phenyl)-1H-1,2,3-triazol-1-yl)-3-methylbutanoyl)-N—((R)-1-(4-(1-ethyl-1H-pyrazol-5-yl)phenyl)-2-hydroxyethyl)-4-hydroxypyrrolidine-2-carboxamide]
< 10 | – | – | CO[C@@H](C)COc1nc(N2CCCNCC2)c2cc(C3CC3)c(-c3c(C)c(F)cc4[nH]ncc34)c(OCc3ccc(-c4cn([C@H](C(=O)N5C[C@H](O)C[C@H]5C(=O)N[C@@H](CO)c5ccc(-c6scnc6C)c6c5CC6)C(C)C)nn4)cc3)c2n1 [Example 219, (2S,4R)-1-((2S)-2-(4-(4-(((6-cyclopropyl-4-(1,4-diazepan-1-yl)-7-(6-fluoro-5-methyl-1H-indazol-4-yl)-2-((S)-2-methoxypropoxy)quinazolin-8-yl)oxy)methyl)phenyl)-1H-1,2,3-triazol-1-yl)-3-methylbutanoyl)-4-hydroxy-N—((R)-2-hydroxy-1-(5-(4-methylthiazol-5-yl)bicyclo[4.2.0]octa-1(6),2,4-trien-2-yl)ethyl)pyrrolidine-2-carboxamide]
10 to 100 | – | – | Cc1ncsc1-c1ccc([C@H](CO)NC(=O)[C@@H]2C[C@@H](O)CN2C(=O)[C@H](C(C)C)n2cc(-c3ccc(COc4c(-c5c(C)c(F)c(F)c6[nH]ncc56)c(C5CCC5)cc5c(N6C[C@@H]7C[C@H]6CN7)nc(OC6CCOCC6)nc45)cc3)nn2)cc1 [Example 120, (2S,4R)-1-((2S)-2-(4-(4-(((4-((1S,4S)-2,5-diazabicyclo[2.2.1]heptan-2-yl)-6-cyclobutyl-7-(6,7-difluoro-5-methyl-1H-indazol-4-yl)-2-((tetrahydro-2H-pyran-4-yl)oxy)quinazolin-8-yl)oxy)methyl)phenyl)-1H-1,2,3-triazol-1-yl)-3-methylbutanoyl)-4-hydroxy-N—((R)-2-hydroxy-1-(4-(4-methylthiazol-5-yl)phenyl)ethyl)pyrrolidine-2-carboxamide]
